This passage reports melting point results from a melting point compilation (Tetko et al.; mined from patent text by program, amines drawn as free bases though some values may be those of a salt).

Molecules are shown by their SMILES.

As usually defined, the melting point is the temperature, or range, at which the solid turns liquid. `CC(Oc1cc(Oc2ccc(C(F)(F)F)cc2Cl)ccc1C#N)C(N)=O` (stereo not given) returned a melting point of 134 to 137 °C.
For the compound `CC(C)(C)c1ccc(CC2CCN(C(=O)C(=O)Nc3ccc4[nH]c(=O)oc4c3)CC2)cc1`, the melting point was determined as 168 °C.
As to `CCCCCCCc1ccc(-c2nc(C)c(C(C)=NNC(=N)N)s2)cc1`, the melting point was 233 to 235 °C.
In turn, `COCCCN1C(=O)CC(=O)Nc2ccccc21` registered a melting point of 137 to 138 °C.
The compound `NN1CCN(Cc2c[nH]c3ccccc23)CC1` registered a melting point of 147 to 149 °C.
As for `Clc1nc(NC2CC2)nc(C2CC2)n1`, the melting point lay within 66 to 67 °C.
For the compound `CNC(=O)c1ccc(Nc2cc(-n3ccc(C(F)(F)F)n3)c3ccccc3n2)cc1`, the melting point was 250 to 252 °C.
`CC(=O)n1ncc2cc(C)c([N+](=O)[O-])cc21` showed a melting point of 180 to 182 °C.
The result for `Cc1ccc(O)c(Cn2ccnc2)n1` reads 153 to 155 °C; that for `COc1cc(OC)cc(C(=O)N2CCc3cc(O)ccc3C2=O)c1`, 178 to 179 °C.
`CC(=O)OCCNC(=O)Nc1ccc2c(c1)C(c1ccccc1F)=NCC(=O)N2C` registered a melting point of 196 to 198 °C.
`Cc1cc(C(C)(C)C)c(O)c(S(=O)(=O)Nc2ccc(C#N)c(C(F)(F)F)c2)c1` returned a melting point of 159 to 162 °C.
Next, `Nc1c(Br)cc2c(c1Br)CCC2`: 220 to 221 °C; `N#Cc1ccc(Nc2nc(Oc3c(Br)cc(Br)cc3Br)ccc2[N+](=O)[O-])cc1`: 188 to 191 °C; `CCOC(=O)Cc1cc(Br)c(C(=O)c2ccc(Cl)cc2)n1C`: 118 to 120 °C.
`O=C(SCCC(=O)N1c2ccccc2CCC1C(=O)O)c1ccccc1` (stereo not given) showed a melting point of 99 to 101 °C.
The result for `COc1ccc(Cl)cc1S(=O)(=O)Nc1onc(C)c1Br` reads 180 to 184 °C.
In turn, `O=C(NCc1ccncc1)N(c1ccccc1)c1ccccc1` gave a melting point of 174 °C.
Next, `CCOC(=O)c1cn(-c2cc(OC)c(F)cc2F)c2c(C)c([N+](=O)[O-])c(F)cc2c1=O`: 248 to 250 °C; `O=C(N[C@H](Cc1ccccc1C(F)(F)F)[C@@H](O)c1ccc(F)cc1)C1CCCCC1` (racemic): 216 to 217 °C.
In the case of `COC1CCCNC(=O)C1` (stereo not given), the melting point is 70 to 73 °C.
As to `Oc1cccnc1C=NNc1ccc(F)cc1`, the melting point was 223 to 225 °C.
Regarding `CC(CS(=O)(=O)c1ccccc1)C1CC=C2C3=C(CCC21C)C1(C)CCC(OC(=O)c2ccccc2)C(C)(C)C1CC3` (stereo not given), the melting point lay within 175 to 188 °C.
The result for `CS(=O)(=O)c1ccccc1-c1ccn[nH]c1=O` reads 123 to 125 °C; that for `CC(N)CCc1ccc(C(N)=O)s1` (racemic), 65 to 75 °C; that for `N#Cc1cc(C(=O)Nc2ccc(F)cn2)nc(C(F)(F)F)c1`, 186 °C.
The result for `CCOC1CN(CC=CC(=O)Nc2cc3c(Nc4cccc(Br)c4)ncnc3cc2OC)CC(OCC)O1` (stereo not given) reads 133 to 138 °C; that for `O=C1Nc2cccc(I)c2C(=O)N2CCC[C@@H]12`, 212 to 215 °C; that for `CC(=O)Nc1ncsc1C`, 62 to 64 °C.
The compound `Nc1ccc(CCC(=O)Nc2ccc(C(=O)c3ccccc3)cc2)cc1[N+](=O)[O-]` came in with a melting point of 72 to 73 °C.
Regarding `CC(C)C[C@H](OC(=O)NC1CCCCC1)C(=O)OCc1ccccc1`, the melting point was in the range of 89 to 90 °C.
On to `c1ccc(Cc2nc(COc3ccc(CCCn4ccnc4)cc3)co2)cc1`, for which the melting point was 61 to 62 °C.
In the case of `COc1cc(OC)cc(N(C)S(=O)(=O)c2ccc(C)cc2)c1`, the melting point was 110 to 111 °C.
Take `Fc1ccc(Nc2ncnc3cnc(NC4CCCNC4)nc23)cc1Cl` (stereo not given): the melting point lay in the range of 194 to 199 °C.
The result for `O=C(CN1CCN(c2ccc(F)cc2)CC1)CN1CCN(c2ccc(F)cc2)CC1` reads 106 to 107 °C.
In turn, `Cc1cccc(NS(=O)(=O)c2ccc(NC3=C(Cl)C(=O)c4ccccc4C3=O)cc2)c1` showed a melting point of 234 to 237 °C.
As to `O[C@H]1CC[C@H](N(Cc2ccccc2)Cc2ccccc2)CC1`, the melting point was 97 to 99 °C.
For `CCOC(=O)C=CC=Cc1ccc([N+](=O)[O-])cc1`, the melting point lay in the range of 150 to 152 °C.
For the compound `CCOc1c(Cl)ccc(-c2nc(C(=O)OC)c(Cl)c(S(C)(=O)=O)n2)c1F`, the melting point was in the range of 164 to 166 °C.
`NC(=O)[C@@H]1COCN1C(=O)CCl` gave a melting point of 131 to 133 °C.
As for `CCS(=O)(=O)CCC(=O)NNC(=O)N1Cc2cc(OC)ccc2Oc2ccc(Cl)cc21`, the melting point was in the range of 173 to 175 °C.
Compound `Cn1nc(N2c3cccc(F)c3CC2C(=O)N2CCCCCC2)ccc1=O` (stereo not given) registered a melting point of 211 to 213 °C.
Next, `Nc1nc(N)c(CCCCCc2ccccc2)c(CCCCc2ccccc2)n1`: 75 to 78 °C.
The result for `COc1ccccc1S(=O)(=O)NC(=O)c1ccc(C(=O)O)nc1` reads 234 to 236 °C; that for `CCCCCCCC1OC1CO` (stereo not given), 50 to 51 °C.
In turn, `CCOC(=O)c1c(C(C)(C)C)oc(-c2ccccc2)c1-c1ccc(F)cc1` came in with a melting point of 93 to 94 °C.
On to `COc1cc(C(C)C)c2c(c1)S(=O)(=O)N(CCl)C2=O`, for which the melting point fell in the range of 151 to 152 °C.
`CCCCN(CC(=O)N1c2ccccc2N(CC)C(=O)c2cnc(-c3ccccc3)nc21)C(C)(C)C` had a melting point of 70 to 72 °C.
For `CCOC(=O)c1cc(-c2ccc(Cl)cc2)ns1`, the melting point lay within 87.5 to 89 °C.
The result for `COc1ccc(CCc2cc3cc(Br)ccc3o2)cc1` reads 109 to 111 °C; that for `COC(=O)c1ccc(C=O)c2ccccc12`, 95 to 96 °C; that for `CSc1ccc(Oc2cccc(C=O)n2)cc1`, 60 to 63 °C.
The result for `CC(NCCN(CCNC(C)=C1C(=O)CC(C)(C)CC1=O)C(=O)CCC(=O)O)=C1C(=O)CC(C)(C)CC1=O` reads 65 to 68 °C; that for `Oc1cc(-c2ccc(Cl)cc2)nc2ccnn12`, 306 to 308 °C; that for `CC(=O)OC1CSC(Oc2cncc(-c3ccc(F)c(C#N)c3)c2)C(OC(C)=O)C1OC(C)=O` (stereo not given), 178 °C.
For the compound `C=CC/C=C(\C(=O)O)c1cc(OC)c(O)c2c(Cc3ccccc3)cccc12`, the melting point was 156 to 158 °C.
The result for `Cc1c(Br)c(NC(=O)CC(C)(C)C)c(C)c2c1OCC2c1ccc(C(C)C)cc1` (stereo not given) reads 174 to 175 °C; that for `Cn1ccnc1COc1cc(Cl)ncn1`, 126 to 128 °C; that for `COc1ccc(CNc2nnc(Cl)c3cc(Cl)ccc23)cc1Cl`, 168 to 170 °C.
Turning to `CCCCC(=O)Nc1cccc2c1C(=O)N(C1(C)CCC(=O)NC1=O)C2=O` (stereo not given), the melting point was 190 to 192 °C.
In turn, `Cc1nc(N2CCOCC2)ccc1N1CCCn2c1nc1c(Cl)ccc(C(OC(F)F)C(F)(F)F)c12` (stereo not given) displayed a melting point of 191 to 193 °C.
Compound `O=c1[nH]c2c(O)cccc2c(=O)n1CCCN1CC=C(c2ccc(Cl)cc2)CC1` came in with a melting point of 284 to 286 °C.
On to `O=C1c2cccc3cc(OS(=O)(=O)C(F)(F)F)cc(c23)C(=O)N1O`, for which the melting point is 167 to 169 °C.
As to `CN1CC2CC(=O)CC(C1)N2C`, the melting point lay within 72 to 73 °C.
In the case of `COC(=O)/C=C/C=C(c1ccccc1OC)c1ccccc1OC`, the melting point fell in the range of 100 to 102 °C.
Consider `Cc1sc2ncc(C(O)CC(O)c3ccccc3)n2c1C` (stereo not given), for which the melting point was in the range of 152 to 153 °C.
`CCn1c2ccccc2c2cc(C=C(c3ccccc3)c3ccccc3)ccc21` showed a melting point of 145 to 146 °C.
Next, `Cc1cc2cc(CN3CCC(C(N)=O)CC3)cnc2cc1NC(=O)c1ccc(-c2ccc(F)cc2)cc1`: 265 °C; `OC(c1nc(-c2ccc(F)cc2)c(-c2ccc(F)cc2)[nH]1)(C(F)(F)F)C(F)(F)F`: 153 to 155 °C.
The result for `Cc1cccc(OCC(=S)NCCNC(=S)Nc2ccccc2)c1C` reads 112 to 113 °C; that for `CN1CCN(c2cnc([N+](=O)[O-])c(Cl)n2)CC1`, 50 °C.
Compound `N#Cc1cccc(N2C(=O)CC(=O)Nc3c2ccc2ccccc32)c1` registered a melting point of 220 to 222 °C.
Consider `CCN(c1nc(C)cc(C)n1)c1ccc(CC=NOC)cc1SC`, for which the melting point was in the range of 106 to 108 °C.
`O=C(N[C@H]1CCCNC1=O)c1c(F)cccc1F` showed a melting point of 190 to 194 °C.
In turn, `O=P(O)(O)Cc1ccccc1-c1ccccc1` registered a melting point of 168 to 169 °C.
`Cc1nn(-c2cc3nc(S)sc3cc2Br)c(=O)n1C(F)F` showed a melting point of 254 to 256 °C.
The result for `COC(=O)[C@H](Cc1ccc(-c2cn(C)c(=O)n(C)c2=O)cc1)NC(=O)c1c(C)cccc1Cl` reads 155 to 157 °C; that for `O=C1Nc2cccnc2N(C(=O)NCCN2CCC(CCCN3CCCCC3)CC2)c2cc(Cl)ccc21`, 176 to 177 °C.
In turn, `Cc1[nH]ncc1C(=O)Nc1ccc(OCC(C)(C)C)c(C#N)c1` returned a melting point of 133 to 134 °C.
Take `CCCCCCCC[C@H](N[C@@H](C)C(=O)N1C(=O)N(Cc2ccccc2)C[C@H]1C(=O)O)C(=O)OCC`: the melting point lay within 86 to 88 °C.
As to `CCOC(=O)c1ccsc1NC(=O)NCCN1CCN(c2ccc(OC)cc2)CC1`, the melting point was 103 to 106 °C.
Compound `CN(c1ccc(Cl)cc1)S(=O)(=O)c1cccc(NC(=O)c2ccc(Br)cc2)c1` returned a melting point of 187 to 189 °C.
The result for `CC(c1ncccn1)C(O)(Cn1cncn1)c1ccc(F)cc1F` (stereo not given) reads 193 to 195 °C.
On to `CCc1nc(-c2cc3cc(OCCNC[C@H](O)COc4ccccc4)ccc3o2)no1`, for which the melting point fell in the range of 97 to 98 °C.
For `CC(C)(C)C(=O)C(=[N+]=[N-])S(=O)(=O)C1CCCCC1`, the melting point lay within 80.5 to 82 °C.
The result for `Cc1cccc(CNC(=O)c2ccc3n2Cc2ccccc2N(C(=O)COc2ccc(Cl)cc2)C3)c1` reads 130 to 131 °C; that for `COc1ccc(C(=O)NC(=O)Nc2ccc3c(c2)/C(=C/c2ccc[nH]2)C(=O)N3)cc1`, 278 to 283 °C; that for `CC(C)Oc1ccccc1-c1nc2ccc(C(=O)O)cc2c(=O)[nH]1`, 316 to 318 °C.
As to `CCCc1c(OCCCC(=O)O)ccc(C(C)=O)c1O`, the melting point lay in the range of 130 to 133 °C.
Compound `NC(=O)COc1ccc(OCCn2ccnc2)cc1` registered a melting point of 123 to 124 °C.
